Converted amounts (≈) assume the structure as drawn.
Assays:
MDA-MB-231 [1] = experiment: Cytotoxicity against Homo sapiens (human) MDA-MB-231 cells assessed as cell viability at 1 uM after 48 hr by MTT assay relative to control; type: functional; conditions: MDA-MB-231, 48 h, read-out: Activity
MCF7 [2] = experiment: Cytotoxicity against Homo sapiens (human) MCF7 cells assessed as cell viability at 10 uM after 48 hr by MTT assay relative to control; type: functional; conditions: MCF7, 48 h, read-out: Activity
MDA-MB-231 [3] = experiment: Cytotoxicity against Homo sapiens (human) MDA-MB-231 cells assessed as cell viability at 10 uM after 48 hr by MTT assay relative to control; type: functional; conditions: MDA-MB-231, 48 h, read-out: Activity
Aspergillus niger [4] = experiment: Antifungal activity against Aspergillus niger MTCC 1344 assessed as growth inhibition at 150 ug/ml after 48 hr by agar cup diffusion method; type: functional; conditions: MTCC 1344, 48 h, read-out: DIZ
Aspergillus niger [5] = experiment: Antifungal activity against Aspergillus niger MTCC 1344 assessed as growth inhibition at 100 ug/ml after 48 hr by agar cup diffusion method; type: functional; conditions: MTCC 1344, 48 h, read-out: DIZ
Saccharomyces cerevisiae [6] = experiment: Antifungal activity against Saccharomyces cerevisiae MTCC 36 assessed as growth inhibition at 150 ug/ml after 48 hr by agar cup diffusion method; type: functional; conditions: MTCC 36, 48 h, read-out: DIZ
Saccharomyces cerevisiae [7] = experiment: Antifungal activity against Saccharomyces cerevisiae MTCC 36 assessed as growth inhibition at 100 ug/ml after 48 hr by agar cup diffusion method; type: functional; conditions: MTCC 36, 48 h, read-out: DIZ
Diutina rugosa [8] = experiment: Antifungal activity against Candida rugosa NCIM 3462 assessed as growth inhibition at 150 ug/ml after 48 hr by agar cup diffusion method; type: functional; conditions: NCIM 3462, 48 h, read-out: DIZ
Diutina rugosa [9] = experiment: Antifungal activity against Candida rugosa NCIM 3462 assessed as growth inhibition at 100 ug/ml after 48 hr by agar cup diffusion method; type: functional; conditions: NCIM 3462, 48 h, read-out: DIZ
Candida albicans [10] = experiment: Antifungal activity against Candida albicans MTCC 227 assessed as growth inhibition at 150 ug/ml after 48 hr by agar cup diffusion method; type: functional; conditions: MTCC 227, 48 h, read-out: DIZ
Candida albicans [11] = experiment: Antifungal activity against Candida albicans MTCC 227 assessed as growth inhibition at 100 ug/ml after 48 hr by agar cup diffusion method; type: functional; conditions: MTCC 227, 48 h, read-out: DIZ
Klebsiella pneumoniae = experiment: Antibacterial activity against Klebsiella pneumoniae assessed as growth inhibition by broth dilution method; type: functional
Pseudomonas aeruginosa = experiment: Antibacterial activity against Pseudomonas aeruginosa MTCC 741 assessed as growth inhibition by broth dilution method; type: functional; conditions: read-out: MIC
MCF7 [12] = experiment: Cytotoxicity against Homo sapiens (human) MCF7 cells assessed as cell viability after 48 hr by MTT assay; type: functional, cell-based; conditions: MCF7, 48 h
MDA-MB-231 [13] = experiment: Cytotoxicity against Homo sapiens (human) MDA-MB-231 cells assessed as cell viability after 48 hr by MTT assay; type: functional, cell-based; conditions: MDA-MB-231, 48 h
Staphylococcus aureus = experiment: Antibacterial activity against Staphylococcus aureus MTCC 96 assessed as growth inhibition by broth dilution method; type: functional
Bacillus subtilis = experiment: Antibacterial activity against Bacillus subtilis MTCC 441 assessed as growth inhibition by broth dilution method; type: functional; conditions: read-out: MIC
[14] = tested on: Staphylococcus epidermidis; experiment: Antibacterial activity against Staphylococcus epidermidis MTCC 435 assessed as growth inhibition by broth dilution method; type: functional; conditions: read-out: MIC
Escherichia coli = experiment: Antibacterial activity against Escherichia coli MTCC 443 assessed as growth inhibition by broth dilution method; type: functional; conditions: read-out: MIC
Aspergillus niger [15] = experiment: Antifungal activity against Aspergillus niger MTCC 1344 assessed as growth inhibition at 50 ug/ml after 48 hr by agar cup diffusion method; type: functional; conditions: MTCC 1344, 48 h, read-out: DIZ
Saccharomyces cerevisiae [16] = experiment: Antifungal activity against Saccharomyces cerevisiae MTCC 36 assessed as growth inhibition at 50 ug/ml after 48 hr by agar cup diffusion method; type: functional; conditions: MTCC 36, 48 h, read-out: DIZ
Diutina rugosa [17] = experiment: Antifungal activity against Candida rugosa NCIM 3462 assessed as growth inhibition at 50 ug/ml after 48 hr by agar cup diffusion method; type: functional; conditions: NCIM 3462, 48 h, read-out: DIZ
Candida albicans [18] = experiment: Antifungal activity against Candida albicans MTCC 227 assessed as growth inhibition at 50 ug/ml after 48 hr by agar cup diffusion method; type: functional; conditions: MTCC 227, 48 h, read-out: DIZ
MCF7 [19] = experiment: Cytotoxicity against Homo sapiens (human) MCF7 cells assessed as cell viability at 5 uM after 48 hr by MTT assay relative to control; type: functional; conditions: MCF7, 48 h, read-out: Activity
MDA-MB-231 [20] = experiment: Cytotoxicity against Homo sapiens (human) MDA-MB-231 cells assessed as cell viability at 5 uM after 48 hr by MTT assay relative to control; type: functional; conditions: MDA-MB-231, 48 h, read-out: Activity

MIC (Klebsiella pneumoniae; read-out: MIC) | MIC (Pseudomonas aeruginosa) | MIC (Bacillus subtilis) | MIC [14] | MIC (Escherichia coli) | MIC (Staphylococcus aureus) | Compound | viability at 10 µM (MCF7 [2]) | viability at 10 µM (MDA-MB-231 [3]) | zone of inhibition at 150 µg/mL (Aspergillus niger [4]) | zone of inhibition at 100 µg/mL (Aspergillus niger [5]) | zone of inhibition at 150 µg/mL (Saccharomyces cerevisiae [6]) | zone of inhibition at 100 µg/mL (Saccharomyces cerevisiae [7]) | zone of inhibition at 150 µg/mL (Diutina rugosa [8]) | zone of inhibition at 100 µg/mL (Diutina rugosa [9]) | zone of inhibition at 150 µg/mL (Candida albicans [10]) | zone of inhibition at 100 µg/mL (Candida albicans [11]) | other results
– | 150 µg/mL (≈ 500 µM) | 150 µg/mL (≈ 500 µM) | 150 µg/mL (≈ 500 µM) | 150 µg/mL (≈ 500 µM) | > 150 µg/mL | O=C(N/N=C/c1ccccc1)c1snnc1C(F)(F)F | 102% | 102% | 0 mm | 0 mm | 0 mm | 0 mm | 6 mm | 0 mm | 12 mm | 10 mm | MIC (Klebsiella pneumoniae): > 150 µg/mL
150 µg/mL (≈ 471 µM) | 150 µg/mL (≈ 471 µM) | 150 µg/mL (≈ 471 µM) | 150 µg/mL (≈ 471 µM) | 150 µg/mL (≈ 471 µM) | > 150 µg/mL | O=C(N/N=C/c1ccc(F)cc1)c1snnc1C(F)(F)F | 99.5% | 102% | 0 mm | 0 mm | 0 mm | 0 mm | 0 mm | 0 mm | 0 mm | 0 mm | –

The next lines start with the compound.

Compound | MIC (Klebsiella pneumoniae; read-out: MIC) | MIC (Pseudomonas aeruginosa) | MIC (Bacillus subtilis) | MIC [14] | MIC (Escherichia coli) | MIC (Staphylococcus aureus) | viability at 10 µM (MCF7 [2]) | viability at 10 µM (MDA-MB-231 [3]) | zone of inhibition at 150 µg/mL (Aspergillus niger [4]) | zone of inhibition at 100 µg/mL (Aspergillus niger [5]) | zone of inhibition at 150 µg/mL (Saccharomyces cerevisiae [6]) | zone of inhibition at 100 µg/mL (Saccharomyces cerevisiae [7]) | zone of inhibition at 150 µg/mL (Diutina rugosa [8]) | zone of inhibition at 100 µg/mL (Diutina rugosa [9]) | zone of inhibition at 150 µg/mL (Candida albicans [10]) | zone of inhibition at 100 µg/mL (Candida albicans [11]) | other results
C/C(=N\NC(=O)c1snnc1C(F)(F)F)c1ccccn1 | 150 µg/mL (≈ 476 µM) | 150 µg/mL (≈ 476 µM) | 150 µg/mL (≈ 476 µM) | 150 µg/mL (≈ 476 µM) | 150 µg/mL (≈ 476 µM) | – | 63.6% | 25.4% | 0 mm | 0 mm | 0 mm | 0 mm | 0 mm | 0 mm | 0 mm | 0 mm | viability at 1 µM (MDA-MB-231 [1]): 41.7%; IC50 (MCF7 [12]): 6.01 µg/mL (≈ 19.1 µM); IC50 (MDA-MB-231 [13]): 2.74 µg/mL (≈ 8.69 µM); MIC (Staphylococcus aureus; read-out: MIC): 150 µg/mL (≈ 476 µM)
C[C@@H]1[C@H](O)[C@@H](C)/C=C/C=C/C=C/C=C/C=C/C=C/C=C/[C@H](O[C@@H]2O[C@H](C)[C@@H](O)[C@H](N)[C@@H]2O)C[C@@H]2O[C@](O)(C[C@@H](O)C[C@@H](O)[C@H](O)CC[C@@H](O)C[C@@H](O)CC(=O)O[C@H]1C)C[C@H](O)[C@H]2C(=O)O [AMPHOTERICIN B] | – | – | – | – | – | – | – | – | – | – | – | – | – | – | – | – | zone of inhibition at 50 µg/mL (Aspergillus niger [15]): 25 mm; zone of inhibition at 50 µg/mL (Saccharomyces cerevisiae [16]): 22 mm; zone of inhibition at 50 µg/mL (Diutina rugosa [17]): 21 mm; zone of inhibition at 50 µg/mL (Candida albicans [18]): 23.5 mm
COc1cccc2c1C(=O)c1c(O)c3c(c(O)c1C2=O)C[C@@](O)(C(=O)CO)C[C@@H]3O[C@H]1C[C@H](N)[C@H](O)[C@H](C)O1 [DOXORUBICIN] | – | – | – | – | – | – | – | – | – | – | – | – | – | – | – | – | viability at 5 µM (MCF7 [19]): 43.1%; viability at 5 µM (MDA-MB-231 [20]): 22.9%
